Assay results taken from ChEMBL document CHEMBL1201862, “PubChem BioAssay data set” (2004).
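Five concentrations, 48 hours, 96-well plates. The concentration for 50% growth inhibition is given as GI50.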 Active and inactive are the calls of the source. Rule as the data show it: active = GI50 up to about 1.1 µM and inactive = higher.

How the values were obtained:
Test in all cases: NCI-60 cell line screen, 48 h
CAKI-1 = system: CAKI-1
CCRF-CEM = system: CCRF-CEM
HCT-15 = system: HCT-15
IGROV-1 = system: IGROV-1
KM12 = system: KM12
M14 = system: M14
MDA-N = system: MDA-N
MOLT-4 = system: MOLT-4
NCI-H226 = system: NCI-H226
NCI-H522 = system: NCI-H522
RPMI-8226 = system: RPMI-8226
SF-268 = system: SF-268
SK-MEL-5 = system: SK-MEL-5
SK-OV-3 = system: SK-OV-3
T47D = system: T47D
TK-10 = system: TK-10
UACC-257 = system: UACC-257
HOP-92 = system: HOP-92
OVCAR-5 = system: OVCAR-5
HCC 2998 = system: HCC 2998

Compound | GI50 (CAKI-1) | GI50 (CCRF-CEM) | GI50 (HCT-15) [µM] | GI50 (IGROV-1) | GI50 (KM12) | GI50 (M14) | GI50 (MDA-N) | GI50 (MOLT-4) | GI50 (NCI-H226) | GI50 (NCI-H522) | GI50 (RPMI-8226) | GI50 (SF-268) | GI50 (SK-MEL-5) | GI50 (SK-OV-3) | GI50 (T47D) | GI50 (TK-10) | GI50 (UACC-257) | GI50 (HOP-92) | GI50 (OVCAR-5) | GI50 (HCC 2998)
COc1ccc(/C=C\c2cc(OC)c(OC)c(OC)c2)cc1OC(=O)CCC(=O)O | 0.33 µM (active) | < 0.0001 µM (active) | < 0.0001 | 0.000145 µM (active) | 0.00043 µM (active) | < 0.0001 µM (active) | < 0.0001 µM (active) | < 0.0001 µM (active) | < 0.0001 µM (active) | < 0.0001 µM (active) | < 0.0001 µM (active) | < 0.0001 µM (active) | 0.1 µM (active) | 0.000895 µM (active) | 29.9 µM (inactive) | 46.6 µM (inactive) | > 10 µM (inactive) |  |  | 
CC1CN=C(N(C(=O)Nc2ccc(F)c(Cl)c2)c2ccccc2)S1 (stereo not given) | 21 µM (inactive) | 31.3 µM (inactive) | 22.4 | 27.8 µM (inactive) | 26.5 µM (inactive) | 28.4 µM (inactive) | 18.9 µM (inactive) | 16.7 µM (inactive) |  |  | 25.8 µM (inactive) | 27.5 µM (inactive) | 16.4 µM (inactive) | 33.6 µM (inactive) | 16.8 µM (inactive) | 25.9 µM (inactive) | 24.6 µM (inactive) | 20.3 µM (inactive) | 28.2 µM (inactive) | 
C[N+](C)(N)CCC[N+](C)(C)N | > 100 µM (inactive) | > 100 µM (inactive) | > 100 | > 100 µM (inactive) | > 100 µM (inactive) | > 100 µM (inactive) | > 100 µM (inactive) | > 100 µM (inactive) | > 100 µM (inactive) | > 100 µM (inactive) | > 100 µM (inactive) | > 100 µM (inactive) | > 100 µM (inactive) | > 100 µM (inactive) | > 100 µM (inactive) | > 100 µM (inactive) | > 100 µM (inactive) | > 100 µM (inactive) | > 100 µM (inactive) | 
COC(CN(C)C(=O)C(C)NC(=O)c1ccccc1)OC (stereo not given) | > 100 µM (inactive) | > 100 µM (inactive) | > 100 | > 100 µM (inactive) | > 100 µM (inactive) | > 100 µM (inactive) | > 100 µM (inactive) | > 100 µM (inactive) | > 100 µM (inactive) | > 100 µM (inactive) | > 100 µM (inactive) | > 100 µM (inactive) | > 100 µM (inactive) | > 100 µM (inactive) | > 100 µM (inactive) | > 100 µM (inactive) | > 100 µM (inactive) | > 100 µM (inactive) | > 100 µM (inactive) | 
c1ccc([P+](CCNCCNCC[P+](c2ccccc2)(c2ccccc2)c2ccccc2)(c2ccccc2)c2ccccc2)cc1 |  |  | > 100 | > 100 µM (inactive) | > 100 µM (inactive) | > 100 µM (inactive) | > 100 µM (inactive) | > 100 µM (inactive) | > 100 µM (inactive) |  | > 100 µM (inactive) | > 100 µM (inactive) | > 100 µM (inactive) | > 100 µM (inactive) | > 100 µM (inactive) | > 100 µM (inactive) | > 100 µM (inactive) |  | > 100 µM (inactive) | > 100 µM (inactive)
O=C([C@H](O)[C@@H](O)c1ccc(Br)cc1)C12CC3CC(CC(C3)C1)C2 | 14.9 µM (inactive) |  | 13.6 | 4.48 µM (inactive) | 13.8 µM (inactive) | 13.6 µM (inactive) | 11.1 µM (inactive) | 14.4 µM (inactive) | > 49.8 µM (inactive) | 10.8 µM (inactive) | 14.3 µM (inactive) | 11.6 µM (inactive) | 23.6 µM (inactive) | 28.4 µM (inactive) | 6.56 µM (inactive) | 14 µM (inactive) | 9.59 µM (inactive) |  | 39.4 µM (inactive) | > 21.3 µM (inactive)
Cc1ccc(OC2CC(n3cnc4c(=O)[nH]c(Br)nc43)OC2Oc2ccc(C)cc2)cc1 (stereo not given) | 24.9 µM (inactive) | 23.1 µM (inactive) | 30.3 | 24.4 µM (inactive) | 29 µM (inactive) | 24.9 µM (inactive) |  | 23.9 µM (inactive) | 34.5 µM (inactive) | 21.2 µM (inactive) | 34.4 µM (inactive) | 22.6 µM (inactive) | 22.4 µM (inactive) | 34.5 µM (inactive) | 24.8 µM (inactive) | 23.2 µM (inactive) | 25 µM (inactive) | 22.4 µM (inactive) | 21.4 µM (inactive) | 24 µM (inactive)
CC[C@]12C=CCN3CCC4(c5cc(/N=N/c6ccc([N+](=O)[O-])cc6)c(OC)cc5N(C)[C@H]4[C@@](O)(C(=O)OC)[C@@H]1OC(C)=O)[C@@H]32 (stereo not given in full) | 12.9 µM (inactive) | 1.77 µM (inactive) | 13.5 | 11.9 µM (inactive) | 14.3 µM (inactive) | 15.5 µM (inactive) | 12.9 µM (inactive) | 3.01 µM (inactive) | 5.5 µM (inactive) |  | 3.48 µM (inactive) | 16.2 µM (inactive) | 12.4 µM (inactive) | 18 µM (inactive) | 13.3 µM (inactive) | 17.2 µM (inactive) | 14.7 µM (inactive) | 2.54 µM (inactive) | 13 µM (inactive) | 
COc1ccc2c(c1)CCN=C2c1ccccc1CCCCl | 24.4 µM (inactive) | 41.4 µM (inactive) | 23.6 | 20.1 µM (inactive) | 14.9 µM (inactive) | 29.3 µM (inactive) |  | 13 µM (inactive) | 15.7 µM (inactive) | 11.5 µM (inactive) | 1.84 µM (inactive) | 22.2 µM (inactive) | 4.99 µM (inactive) | 31.5 µM (inactive) | 10.8 µM (inactive) | 94 µM (inactive) | 23.7 µM (inactive) | 26.7 µM (inactive) | 46.8 µM (inactive) | 6.25 µM (inactive)
COc1ccc(C(NCCNC(c2ccc(OC)c(OC)c2)c2cc3c(cc2O)OCO3)c2cc3c(cc2O)OCO3)cc1OC (stereo not given) | 2.64 µM (inactive) | 0.141 µM (active) | 1.85 | 2.72 µM (inactive) | 2.67 µM (inactive) | 2.92 µM (inactive) | 1.64 µM (inactive) | 0.918 µM (active) | 8.02 µM (inactive) | 1.74 µM (inactive) | 2 µM (inactive) | 1.63 µM (inactive) | 7.05 µM (inactive) | 6.87 µM (inactive) | 3.37 µM (inactive) | 4.04 µM (inactive) | 4.26 µM (inactive) | 6.71 µM (inactive) | 4.57 µM (inactive) | 
CCOc1cc(C2CC(c3ccc(NS(=O)(=O)c4cc([N+](=O)[O-])ccc4C)cc3)=NN2C(=O)c2ccccc2)ccc1O (stereo not given) | 24.7 µM (inactive) | 20.7 µM (inactive) | 12.9 | 10.6 µM (inactive) | 30.3 µM (inactive) | 18.7 µM (inactive) | 21.8 µM (inactive) | 19.4 µM (inactive) | 19.2 µM (inactive) | 14.8 µM (inactive) | 31.5 µM (inactive) | 15.7 µM (inactive) | 15.8 µM (inactive) | 18.2 µM (inactive) | 12.1 µM (inactive) | 14.2 µM (inactive) | 18.2 µM (inactive) | 14.8 µM (inactive) | 36.6 µM (inactive) | 
